This is an account of results in patent publication US12233089B2, “Foods to promote better health and/or to maintain homeostasis and method of production thereof” (Vector Vitale IP LLC, priority 2021, dated 2025).

Data set [1] relates to S. aureus ATCC 25923. Description: Minimum bactericidal concentration (MBC), S. aureus. It is filed as cell-based. How it is done:
(§1) To evaluate the bactericidal action of the antibacterial composition based on light isotope ^64Zne the minimum bactericidal concentration (MBC) was determined by plating out 0.1 ml of the contents of each tube containing the antibacterial composition on Mueller-Hinton medium. The incubation was at 37° C. for 24 h.
(§2) The MBC of the test samples was determined as the lowest concentration at which there was no growth on Mueller-Hinton agar medium.
(§3) The conditions of the experiment were like those for Zn-64 compound.

The subject of data set [2] is E. coli ATCC 25922. The data set is described as follows: Minimum bactericidal concentration (MBC), E. coli. It is filed as cell-based. Here is the method:
as §1, §2, §3

Data set [3] deals with P. aeruginosa ATCC 27853. The data set is described as follows: Minimum bactericidal concentration (MBC), P. aeruginosa. It is filed as cell-based. Here is the method: as §1, §2, §3
For data set [4], the system named is S. aureus ATCC 25923. Description: MIC (bacteriostatic activity), S. aureus. The settings on record: Table 5. Format: cell-based.
Description: as §3

Data set [5] has as its system E. coli ATCC 25922. The data set is described as follows: MIC (bacteriostatic activity), E. coli. It is filed as cell-based. The settings on record: Table 5.
Description: as §3

The test system of data set [6] is P. aeruginosa ATCC 27853. Description: MIC (bacteriostatic activity), P. aeruginosa. The settings on record: for MIC: Table 5. It is filed as cell-based.
Description: as §3

The subject of the next data set is influenza virus. Description: In vitro reproduction of influenza virus. Format: cell-based.
The test system of a further data set is herpes virus. Format: cell-based. The settings on record: in vitro.
The subject of data set [7] is BVDV—bovine viral diarrhea virus. It is filed as cell-based. The settings on record: in vitro.
The subject of a further data set is RNA and DNA synthesis. Description: Inhibition of RNA and DNA synthesis. Format: cell-based.

Counter-ions that a name gives are not always drawn. Marks after values point to notes of the source that are not given here. Bounds are passed on as bounds.

Regarding `O=S(=O)([O-])[O-].[Zn+2]` [Natural zinc - sulfate, reference compound], the MBC with S. aureus ATCC 25923 [1] (Table 6), in the data set on E. coli ATCC 25922 [2] (Table 6) and with P. aeruginosa ATCC 27853 [3] (Table 6) was >750 mcg zinc/ml throughout. Besides, the MIC in the data set on S. aureus ATCC 25923 [4] was 93.75 zinc mcg/ml; in the data set with E. coli ATCC 25922 [5], 187.5 zinc mcg/ml; against P. aeruginosa ATCC 27853 [6] it was 750 zinc mcg/ml.

Take `N[C@@H](CCC(=O)[O-])C(=O)[O-].[Zn+2]` [Zinc glutamate, reference compound]: the “reproduction of influenza virus” value in the data set on influenza virus is reported as “effectively inhibited”. Further, the “reproduction of herpes virus” value with herpes virus is recorded as “effectively inhibited”. In addition, the “reproduction of surrogate model of HCV (BVDV) virus” value in data set [7] was “effectively inhibited”.

As for `O=C(O)CC(O)(CC(=O)O)C(=O)O` [^64Zne citrate], in the data set on RNA and DNA synthesis, the “RNA and DNA synthesis” value is “Inhibition”. Besides, the “assessment of cytotoxicity and antiviral activity for anti-EBV infection” value with Epstein-Barr virus was “most promising”.

As for `NC(CCC(=O)[O-])C(=O)[O-].[64Zn+2]` (stereo not drawn) [^64Zne glutamate], in the data set on RNA and DNA synthesis, the “RNA and DNA synthesis” value was “Inhibition”. Besides, the MBC in the data set on S. aureus ATCC 25923 [1] (37° C. 24 h, Table 4) was 0.046* mcg ^64Zne/ml; in the data set on E. coli ATCC 25922 [2] (37° C. 24 h, Table 4), 0.37* mcg ^64Zne/ml; against P. aeruginosa ATCC 27853 [3] (37° C. 24 h, Table 4) it was >750 mcg ^64Zne/ml. For the same compound, the “bacteriostatic activity (in words)” value in the data set on P. aeruginosa ATCC 27853 [6] is on record as “best results”.

Take `O=S(=O)([O-])[O-].[64Zn+2]` [^64Zne sulfate]: the MBC in the data set with S. aureus ATCC 25923 [1] (37° C. 24 h, Table 4) is recorded as 0.37* mcg ^64Zne/ml; against S. aureus ATCC 25923 [1] (Table 6), 0.3662 mcg zinc/ml; in the data set on E. coli ATCC 25922 [2] (37° C. 24 h, Table 4), 1.46* mcg ^64Zne/ml; in the data set on E. coli ATCC 25922 [2] (Table 6), 1.4648 mcg zinc/ml; in the data set on P. aeruginosa ATCC 27853 [3] (37° C. 24 h, Table 4), 375 mcg ^64Zne/ml; against P. aeruginosa ATCC 27853 [3] (Table 6) it was 375 mcg zinc/ml. Besides, the results for the MIC against S. aureus ATCC 25923 [4], in the data set on E. coli ATCC 25922 [5] and against P. aeruginosa ATCC 27853 [6] were 0.366 zinc mcg/ml, 0.0916 zinc mcg/ml and 46.875 zinc mcg/ml, respectively.

As to `NC(CCC(=O)[O-])C(=O)[O-].[64Zn+2]` (stereo not drawn) [zinc-64 light isotope glutamate], the “reproduction of influenza virus” value in the data set with influenza virus is “effectively inhibited”. The “reproduction of herpes virus” value in the data set with herpes virus is listed as “effectively inhibited”. Besides, in [7], the “reproduction of surrogate model of HCV (BVDV) virus” value is recorded as “effectively inhibited”.

Zn64 EDDA: in the data set on P. aeruginosa ATCC 27853 [6], the “bacteriostatic activity (in words)” value is given as “best results”. Also, the “assessment of cytotoxicity and antiviral activity for anti-EBV infection” value in the data set on Epstein-Barr virus was “most promising”.

For the compound ^64Zne EDDS, the MBC in the data set on S. aureus ATCC 25923 [1] (37° C. 24 h, Table 4) is given as 0.73* mcg ^64Zne/ml; in the data set on S. aureus ATCC 25923 [1] (Table 6), 0.7324 mcg zinc/ml; in the data set on E. coli ATCC 25922 [2] (37° C. 24 h, Table 4), 2.93* mcg ^64Zne/ml; in the data set with E. coli ATCC 25922 [2] (Table 6) it was 2.9296 mcg zinc/ml; against P. aeruginosa ATCC 27853 [3] (37° C. 24 h, Table 4) it was 375 mcg ^64Zne/ml; against P. aeruginosa ATCC 27853 [3] (Table 6) it was 375 mcg zinc/ml. For the same compound, the MIC in the data set on S. aureus ATCC 25923 [4] was 0.73 zinc mcg/ml; against E. coli ATCC 25922 [5], 0.18 zinc mcg/ml; against P. aeruginosa ATCC 27853 [6], 5.86 zinc mcg/ml.
